Experimental data reported in ChEMBL document CHEMBL1155797, “Cinnamoyl- and hydroxycinnamoyl amides of glaucine and their antioxidative and antiviral activities” (Bioorg Med Chem, 2008).

Tests used:
[1] = test system: Radical scavenging activity; test: Antioxidant activity assessed as DPPH free radical scavenging activity at 1.8 mM after 10 mins; assay type: functional
[2] = test system: Radical scavenging activity; test: Antioxidant activity assessed as DPPH free radical scavenging activity at 3.6 mM after 10 mins; assay type: functional
[3] = test system: Radical scavenging activity; test: Antioxidant activity assessed as DPPH free radical scavenging activity at 3.6 mM after 20 mins; assay type: functional
[4] = test system: Poliovirus 1; test: Antiviral activity against Poliovirus type 1 Lsc-2ab in human FL cells; assay type: functional, organism-based; conditions: Enterovirus C
[5] = Selectivity index, CC50 for human FL cells to IC50 for Coxsackievirus B1; assay type: functional
[6] = Cytotoxicity against human HeLa Ohio-1 cells; assay type: cell-based
[7] = test system: Radical scavenging activity; test: Antioxidant activity assessed as DPPH free radical scavenging activity at 1.8 mM after 20 mins; assay type: functional
[8] = test system: Coxsackievirus B1; test: Antiviral activity against Coxsackievirus B1 in human FL cells; assay type: functional, organism-based; conditions: Enterovirus B
[9] = test system: Radical scavenging activity; test: Antioxidant activity assessed as DPPH free radical scavenging activity at 0.9 mM after 20 mins; assay type: functional
[10] = Selectivity index, CC50 for human HeLa Ohio-1 cells to IC50 for Human rhinovirus type 14; assay type: functional
[11] = Selectivity index, CC50 for human FL cells to IC50 for Poliovirus type 1 Lsc-2ab; assay type: functional
[12] = test system: Radical scavenging activity; test: Antioxidant activity assessed as DPPH free radical scavenging activity at 0.9 mM after 10 mins; assay type: functional
[13] = test system: HeLa; test: Cytotoxicity against human HeLa Ohio-1 cells
[14] = Cytotoxicity against human FL cells after 24 hrs; assay type: cell-based
[15] = test system: Echovirus E13; test: Antiviral activity against Echovirus 13 in human FL cells; assay type: functional, organism-based; conditions: Enterovirus B
[16] = Selectivity index, CC50 for human FL cells to IC50 for Echovirus 13; assay type: functional
[17] = test system: Poliovirus 1; test: Antiviral activity against Poliovirus type 1 Lsc-2ab in human FL cells assessed as inhibition of cytopathic effect relative to control; assay type: functional
[18] = test system: Echovirus E13; test: Antiviral activity against Echovirus 13 in human FL cells assessed as inhibition of cytopathic effect relative to control; assay type: functional
[19] = test system: Coxsackievirus B1; test: Antiviral activity against Coxsackievirus B1 in human FL cells assessed as inhibition of cytopathic effect relative to control; assay type: functional

Row | SMILES | Activity [1] [%] | Activity [2] [%] | Activity [3] [%] | IC50 [4] [µM] | Ratio CC50/IC50 [5] | IC50 [6] [µM] | Activity [7] [%] | IC50 [8] [µM] | Activity [9] [%] | Ratio CC50/IC50 [10] | Ratio CC50/IC50 [11] | Activity [12] [%] | CC50 [13] [µM] | CC50 at 24 h [14] [µM] | IC50 [15] [µM] | Ratio CC50/IC50 [16] | inhibition (INH) [17] | inhibition (INH) [18] | inhibition (INH) [19] [%]
1 | COc1cc2c(cc1OC)-c1c(OC)c(OC)cc3c1[C@H](C2)N(C)CC3 [GLAUCINE] | 1.1 | 1.4 | 1.6 | 60 | 5.5 | 22 | 1.3 | 21 | 1.2 | 8.3 | 1.9 | 0.8 | 182 | 115 | 60 | 1.9 |  |  | 
2 | COc1cc2c(cc1OC)-c1c(OC)c(OC)c(CNC(=O)/C=C/c3cc(OC)c(O)c(OC)c3)c3c1C(C2)N(C)CC3 (centres undefined) | 14.4 | 26.3 | 31.6 |  |  | 28 | 18 |  | 10.5 | 4.5 |  | 8 | 125 | 112 |  |  | 0% | 0% | 0
3 | COc1cc(/C=C/C(=O)NCc2c3c4c(c(OC)c2OC)-c2cc(OC)c(OC)cc2CC4N(C)CC3)ccc1O (centres undefined) | 16.6 | 31.2 | 36.1 |  |  | 12 | 19.4 |  | 10.1 | 9.4 |  | 8.3 | 113 | 105 |  |  | 0% | <=25% | 0
4 | COc1cc2c(cc1OC)-c1c(OC)c(OC)c(CNC(=O)/C=C/c3ccc(O)cc3)c3c1C(C2)N(C)CC3 (centres undefined) | 2 | 3.2 | 4.8 |  |  | 13 | 2.5 |  | 1.8 | 11 |  | 1.8 | 143 | 160 | 32 | 5 | <50% |  | 0
5 | Cc1cc(CCCCCCCOc2ccc(C3=NCCO3)cc2)on1 [DISOXARIL] |  |  |  | 2 | 12.5 | 1.5 |  | 2 |  | 14 | 12.5 |  | 21 | 25 | 1.3 | 19.2 |  |  | 
6 | COc1cc(/C=C/C(=O)O)ccc1O | 21 | 36.7 | 44.3 |  |  |  | 25.1 |  | 13.8 |  |  | 12 |  |  |  |  |  |  | 
7 | O=C(O)/C=C/c1ccccc1O | 2.2 | 3.3 | 3.6 |  |  |  | 2.7 |  | 2.4 |  |  | 2.1 |  |  |  |  |  |  | 
8 | O=C(O)/C=C/c1ccc(O)cc1 | 3.7 | 4.5 | 6.1 |  |  |  | 4.7 |  | 2.9 |  |  | 2.1 |  |  |  |  |  |  | 
9 | COc1cc2c(cc1OC)-c1c(OC)c(OC)cc3ccnc(c13)C2=O [OXOGLAUCINE] |  |  |  | 1.2 | 20.8 | 0.3 |  | 2.5 |  | 170 | 43.3 |  | 51 | 52 | 0.5 | 104 |  |  | 
10 | COc1cc2c(cc1OC)-c1c(OC)c(OC)c(CNC(=O)/C=C/c3ccccc3O)c3c1C(C2)N(C)CC3 (centres undefined) | 2.3 | 3.3 | 4.2 |  |  | 15 | 3.6 |  | 0.8 | 10.3 |  | 1.1 | 155 | 152 |  |  | <=25% | 0% | 0
11 | COc1cc(/C=C/C(=O)O)cc(OC)c1O | 26.5 | 69 | 69.6 |  |  |  | 31.9 |  | 17.2 |  |  | 16.1 |  |  |  |  |  |  | 
12 | COc1cc2c(cc1OC)-c1c(OC)c(OC)c(CN)c3c1C(C2)N(C)CC3 (centres undefined) | 2.2 | 2.9 | 3.8 |  |  |  | 3 |  | 2.5 |  |  | 1.6 |  |  |  |  |  |  | 
